According to US20210371374A1, “METAL DI-AMINO ACID CHELATES OR METAL TRI-AMINO ACID CHELATES” (Balchem Corporation, priority 2020, published 2021):
Peptide text beside a SMILES is read from it.

What was measured:
[1] = Stability of Mg(G3) in solution via 1H NMR; format: physicochemical; details: 1H NMR in D2O; periods up to 72 hrs
Source text: At 72 hrs, an observable upfield shift occurs, which may be due to isomer formation. There is no observable change in proton integration. NMR taken in D2O.

Caco-2 cells = assay: Cellular uptake in Caco-2 cells, BioVision colorimetric magnesium uptake assay kit; format: in vitro ADME; details: compared with other magnesium complexes
Source text: 18 MΩ Ultrapure water was obtained in-house.

stability in solution [1] | Compound | cellular uptake in CaCo-2 cell line (FIG. 72) (Caco-2 cells)
considerable stability | NCC(=O)NCC(=O)NCC(=O)[O-].[Mg+2].[OH-] [Mg(G3), magnesium 2-[[2-[(2-aminoacetyl)amino]acetyl]amino]acetic acid chelate] (H-Gly-Gly-Gly-OH) | 
 | NCC(=O)[O-].NCC(=O)[O-].[Mg+2] [MgBG, magnesium bisglycinate, reference compound] | significantly less cellular uptake than Mg(G3)
 | magnesium diglycine [MgG2] | relatively linear uptake
